In BigSolDB 2.1:

CC1(C)CC(NCCCCCCNC2CC(C)(C)NC(C)(C)C2)CC(C)(C)N1
solubility (mole fraction)
Conditions | in acetone | in acetonitrile | in ethyl acetate | in isobutyl acetate | in isopropyl acetate | in methyl acetate | in n-propyl acetate
273.15 K | 0.00859 | 0.00115 | 0.0288 | 0.0497 | 0.0408 | 0.0224 | 0.0341
278.15 K | 0.013 | 0.00183 | 0.0396 | 0.0625 | 0.0549 | 0.0321 | 0.046
283.15 K | 0.0191 | 0.00233 | 0.056 | 0.0831 | 0.0736 | 0.0448 | 0.063
288.15 K | 0.029 | 0.00371 | 0.0776 | 0.108 | 0.0983 | 0.0663 | 0.084
293.15 K | 0.0467 | 0.00537 | 0.108 | 0.139 | 0.128 | 0.102 | 0.113
298.15 K | 0.0737 | 0.00821 | 0.145 | 0.178 | 0.165 | 0.142 | 0.152
303.15 K | 0.117 | 0.0139 | 0.193 | 0.226 | 0.212 | 0.185 | 0.2
